Laboratory results published in patent US20200054651A1, “COMPOSITIONS AND METHODS FOR MODULATING PPP2R1A” (The Regents of the University of California, priority 2017, published 2020).

Legend:
231MFP tumor xenograft = 231MFP tumor xenograft growth; format: in vivo, immune-deficient SCID mice; conditions: 50 mg/kg ip, daily, initiated 15 days after tumor xenograft injection
[1] = In vivo tolerability during xenograft treatment; conditions: daily treatment for >30 days, 50 mg/kg ip
MCF7 cells = assay: MCF7 serum-free cell survival; format: cell-based; conditions: 10 μM, 48 h
HCC38 cells [2] = assay: HCC38 cell proliferation; format: cell-based; conditions: 10 μM, 48 h
HCC38 cells [3] = assay: HCC38 serum-free cell survival; format: cell-based; conditions: 10 μM, 48 h
C328 on vimentin = molecular target: T1, C328 on vimentin (Homo sapiens, UniProt P08670); assay: Competitive isoTOP-ABPP in 231MFP proteomes in vitro; format: binding; conditions: 10 μM, in vitro treatment of 231MFP proteomes
T1 construct: in vitro treatment of 231MFP breast cancer cell proteomes with withaferin A; endogenous in cells; host or cells: 231MFP breast cancer cells
Method: IsoTOP-ABPP studies were performed using the methods described in “Nature 534(7608), 570-574 (2016)” by Backus K. M., et al. and “Nature 468(7325), 790-795 (2010)” by Weerapana E., et al. Proteome samples diluted in PBS were treated with Withaferin A or vehicle for 30 minutes at 37° C. Then, IAyne (iodoacetamide-alkyne) labeling was performed for 1 hour at room temperature. CuAAC was used by sequential addition of tris(2-carboxyethyl)phosphine (1 mM), tris[(1-benzyl-1H-1,2,3-triazol-4-yl)methyl]amine (34 μM), copper (II) sulfate (1 mM), and biotin-linker-azide where the linker was functionalized with a TEV protease recognition sequence along with an isotopically light or heavy valine for treatment of control or treated proteome, respectively. After click reactions, proteomes were precipitated by centrifugation at 6500×g, washed in ice-cold methanol, combined in a 1:1 control/treated ratio, washed again, then denatured and re-solubilized by heating in 1.2% SDS/PBS to 80° C. for 5 minutes. Insoluble components were precipitated by centrifugation at 6500×g and soluble proteome was diluted in 0.2% SDS/PBS (5 ml). Labeled proteins were bound to avidin-agarose beads (170 μl re-suspended beads/sample) while rotating overnight at 4° C. Bead-linked proteins were enriched by washing three times each in PBS and water, then re-suspended in urea/PBS (6 M), reduced in TCEP (1 mM), alkylated with iodoacetamide (18 mM), then washed and re-suspended in urea/PBS (2 M), and finally trypsinized overnight with 0.5 μg/μl sequencing grade trypsin. Tryptic peptides were eluted off. Beads were washed in PBS (3 times) and water (3 times), washed in TEV buffer solution (water, TEV buffer, 100 μM dithiothreitol), and re-suspended in buffer with Ac-TEV protease and then incubated overnight. Peptides were diluted in water, acidified with formic acid (1.2 M), and prepared for analysis.
Peptides from all proteomic experiments were pressure-loaded onto an Agilent 600 series RP-HPLC system equipped with a capillary tubing (250 mm) packed with Aqua C18 reverse-phase resin (4 cm). The system was previously equilibrated with a gradient (0% B to 100% B over 10 minutes, 100% B for 5 minutes, then 0% B for 5 minutes; buffer A: 95:5 water:acetonitrile, 0.1% formic acid; buffer B: 80:20 acetonitrile:water, 0.1% formic acid). The samples were then attached using a MicroTee PEEK 360 μm fitting to a laser pulled column (13 cm) packed with Aqua C18 reverse-phase resin (10 cm) and strong-cation exchange resin (3 cm) for isoTOP-ABPP studies. Samples were analyzed using an Q Exactive Plus mass spectrometer using a 5-step Multidimensional Protein Identification Technology (MudPIT) program. […]

pure human KEAP1 = molecular target: T2, pure human KEAP1 (Homo sapiens, UniProt Q14145); assay: Gel-based ABPP, competition against IAyne labeling; format: binding; conditions: 10 μM, 30 min at 37° C.
T2 construct: purchased Origene
Method: (§1) Gel-based ABPP methods were performed using the methods described in “Chem Biol 22(10), 1394-1405 (2015)” by Medina-Cleghorn D., et al. Recombinant pure human proteins were purchased from Origene. Pure proteins were pre-treated with DMSO, Withaferin A, or acrylamide or chloroacetamide compounds (e.g., DKM 2-90 or JNS 1-40) for 30 minutes at 37° C. in an incubation volume of PBS (50 μL), and were subsequently treated with IAyne (10 μM final concentration) for 30 minutes at room temperature. CuAAC was performed to append rhodamine-azide onto IAyne probe-labeled proteins. The samples were separated by SDS/PAGE and scanned using a ChemiDoc MP. Inhibition of target labeling was assessed by densitometry using ImageStudio Light software.

pure human vimentin = molecular target: T3, pure human vimentin (Homo sapiens, UniProt P08670); assay: Gel-based ABPP, competition against IAyne labeling; format: binding; conditions: 10 μM, 30 min at 37° C.
T3 construct: purchased Origene
Method: as §1

T3 sequence (P08670 whole entry): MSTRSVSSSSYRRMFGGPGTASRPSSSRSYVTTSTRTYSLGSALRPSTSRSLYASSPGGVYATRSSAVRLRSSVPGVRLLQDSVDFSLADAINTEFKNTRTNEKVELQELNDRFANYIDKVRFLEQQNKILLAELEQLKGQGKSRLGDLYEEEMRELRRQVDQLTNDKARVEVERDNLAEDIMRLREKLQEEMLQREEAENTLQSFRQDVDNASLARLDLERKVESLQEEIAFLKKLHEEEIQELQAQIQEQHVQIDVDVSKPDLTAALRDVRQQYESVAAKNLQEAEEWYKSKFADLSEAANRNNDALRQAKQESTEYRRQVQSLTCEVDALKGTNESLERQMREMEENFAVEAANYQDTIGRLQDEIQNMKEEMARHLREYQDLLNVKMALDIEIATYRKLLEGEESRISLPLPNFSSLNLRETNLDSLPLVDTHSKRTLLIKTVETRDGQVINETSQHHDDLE
T1 sequence (P08670 whole entry): as above
T2 sequence (Q14145 whole entry): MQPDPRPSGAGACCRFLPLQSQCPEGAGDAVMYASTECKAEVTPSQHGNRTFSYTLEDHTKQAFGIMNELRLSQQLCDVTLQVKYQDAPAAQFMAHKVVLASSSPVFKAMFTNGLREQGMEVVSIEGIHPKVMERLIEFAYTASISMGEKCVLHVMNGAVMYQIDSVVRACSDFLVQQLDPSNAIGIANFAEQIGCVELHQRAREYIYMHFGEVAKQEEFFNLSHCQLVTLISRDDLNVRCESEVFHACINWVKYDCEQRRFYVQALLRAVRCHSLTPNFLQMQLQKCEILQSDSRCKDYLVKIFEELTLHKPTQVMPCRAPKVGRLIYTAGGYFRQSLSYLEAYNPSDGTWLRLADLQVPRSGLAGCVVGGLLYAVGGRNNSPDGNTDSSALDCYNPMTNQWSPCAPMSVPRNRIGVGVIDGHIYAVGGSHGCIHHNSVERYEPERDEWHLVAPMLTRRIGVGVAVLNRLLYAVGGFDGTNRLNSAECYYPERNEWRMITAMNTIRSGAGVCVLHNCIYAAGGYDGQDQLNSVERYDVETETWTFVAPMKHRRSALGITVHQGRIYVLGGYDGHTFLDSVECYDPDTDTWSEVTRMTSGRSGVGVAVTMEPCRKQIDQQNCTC

Row | Structure (SMILES) | 231MFP tumor xenograft growth (231MFP tumor xenograft) | overt toxicity or body weight loss [1] | serum-free cell survival (MCF7 cells) | cell proliferation (HCC38 cells [2]) | serum-free cell survival (HCC38 cells [3]) | light to heavy ratio, C328 on vimentin (C328 on vimentin) | competition against IAyne labeling of pure human KEAP1 (pure human KEAP1) | competition against IAyne labeling of pure human vimentin (pure human vimentin)
1 | O=C(CCl)N(Cc1ccccc1)c1ccc2c(c1)OCCO2 [JNS 1-40, N-benzyl-2-chloro-N-(2,3-dihydrobenzo[b][1,4]dioxin-6-yl)acetamide] | significantly attenuated tumor growth | did not cause any overt toxicity or body weight loss | – | – | – | – | – | –
2 | CC1=C(CO)C(=O)O[C@@H]([C@@H](C)[C@H]2CC[C@H]3[C@@H]4C[C@H]5O[C@]56[C@@H](O)C=CC(=O)[C@]6(C)[C@H]4CC[C@]23C)C1 [withaferin A, reference compound] | – | – | impairs | impairs | impairs | 1.0 | no competition | lack of competition
